{
  "source": "paper PMC6379368",
  "about": "“Extracellular and intracellular small-molecule galectin-3 inhibitors” (Scientific Reports, 2019)",
  "key": {"PanC-1 cells [1]": {"tested_on": "PanC-1 cells", "test": "MTT assay, PanC-1 pancreatic cancer cells", "assay_type": "cell-based", "settings": "PanC-1, 72 hours", "protocol": "(§1) The MTT (3-[4,5-dimethylthiazol-2-yl]−2,5-diphenyltetrazolium bromide) assays were performed as previously described. In brief, cells were seeded in 96-well plates (6000 cells/well for MCF-7 and HCC1937 and 5000 cells for JIMT-1 in 180 μl fully-supplemented medium as described under Cell culture). The cells were incubated for 24 hours before addition of galectin-3 inhibitors. The inhibitors were diluted in PBS from their respective stock solution in DMSO (see Galectin-3 inhibitors) and used at final concentrations ranging from 0.04 to 40 μM. DMSO was adjusted to make the final DMSO concentration 0.2% for all inhibitor concentrations, including the control sample (no inhibitor). After 72 hours of treatment, 20 μl of 5 mg/ml MTT solution (in PBS) was added to each well and incubation continued for 1 hour at 37 °C. […] Absorbance was monitored at 540 nm using a Labsystems iEMS Reader MF (Labsystems Oy, Helsinki, Finland) and the software DeltaSoft II v.4.14 (Biometallics Inc., Princeton, NJ, USA). […]\n(§2) Fluorescence anisotropy assay\n(§3) The affinity between inhibitor 1 and the carbohydrate recognition domain (CRD) of galectin-8C and between inhibitor 3 and the CRD of galectin-2, -4N, -4C, 8C, and -9C was determined using the fluorescence anisotropy assay described in the main article. […]"}, "PanC-1 cells [2]": {"tested_on": "PanC-1 cells", "test": "Growth curves, PanC-1", "assay_type": "cell-based", "settings": "PanC-1, 10 µM", "protocol": "(§4) METHODS (not described in main article)\n(§5) The AsPC-1, BxPc-3, MIA PaCa-2, and PanC-1 pancreatic cancer cell lines were purchased from the American Type Culture Collection (ATCC) (Manassas, VA, USA). AsPC-1 and BxPc-3 cell lines were cultured in RPMI-1640 medium, and MIA PaCa-2 and PanC-1 in Dulbecco's Modified Eagle Medium (DMEM)/Ham's F12 medium mixture (1:1). The medium of all four pancreatic cancer cell lines was supplemented with 10 % fetal bovine serum (FBS), 100 U/ml penicillin, and 100 μg/ml streptomycin. The L56Br-C1 breast cancer cell line was established at Lund University (Lund, Sweden)1, and was cultured in RPMI-1640 medium supplemented with 10 % heat-inactivated FBS, 100 U/ml penicillin, 100 μg/ml streptomycin, 1 mM non-essential amino acids, and 10 µg/ml insulin. The MCF-10A normal-like breast cell line was obtained from ATCC and was cultured in the same medium mixture as L56Br-C1 with the addition of 20 ng/ml epidermal growth factor, 50 ng/ml cholera toxin, and 500 ng/ml hydrocortisone.\nas §2\nas §3, with “article. Experimental conditions used for each galectin” for “article.”"}, "L56Br-C1 cells": {"tested_on": "L56Br-C1 cells", "test": "Growth curves, L56Br-C1 breast cancer cells", "assay_type": "cell-based", "settings": "L56Br-C1, 10 µM", "protocol": "as §4, §5, §2\nas §3, with “article. Experimental conditions used for each galectin” for “article.”"}, "MCF-10A cells": {"tested_on": "MCF-10A cells", "test": "MTT assay, MCF-10A normal-like breast cell line", "assay_type": "cell-based", "settings": "72 hours", "protocol": "as §1, §2, §3"}, "[3]": {"tested_on": "animal models of idiopathic pulmonary fibrosis (IPF)", "set-up": "method as in PMID 27356186, PMID 28055102", "settings": "cited from earlier work"}, "BxPc-3 cells": {"tested_on": "BxPc-3 cells", "test": "Growth curves, BxPc-3", "assay_type": "cell-based", "settings": "BxPc-3, 10 µM", "protocol": "as §4, §5, §2\nas §3, with “article. Experimental conditions used for each galectin” for “article.”"}, "AsPC-1 cells": {"tested_on": "AsPC-1 cells", "test": "Growth curves, AsPC-1", "assay_type": "cell-based", "settings": "AsPC-1, 10 µM", "protocol": "as §4, §5, §2\nas §3, with “article. Experimental conditions used for each galectin” for “article.”"}, "MIA PaCa-2 cells": {"tested_on": "MIA PaCa-2 cells", "test": "Growth curves, MIA PaCa-2", "assay_type": "cell-based", "settings": "MIA PaCa-2, 10 µM", "protocol": "as §4, §5, §2\nas §3, with “article. Experimental conditions used for each galectin” for “article.”"}, "JIMT-1 cells": {"tested_on": "JIMT-1 cells", "test": "Cell proliferation assay (growth curves), JIMT-1", "assay_type": "cell-based", "settings": "JIMT-1, 5 µM, up to 6 days", "protocol": "JIMT-1 cells were seeded in 5 cm diameter Petri dishes at a density of 400 000 cells/Petri dish. […] The cells were harvested by trypsinization and the number of cells was determined by counting in a hemocytometer (each day for a total of 6 days)."}},
  "data": [
    {"compound": "OC[C@H]1O[C@@H](S[C@@H]2O[C@H](CO)[C@H](O)[C@H](n3cc(-c4cccc(F)c4)nn3)[C@H]2O)[C@H](O)[C@@H](n2cc(-c3cccc(F)c3)nn2)[C@H]1O", "note": "[compound 1]", "values": [
      {"measurement": "toxicity (MTT)", "setting": "PanC-1 cells [1]", "value": "low toxicity"},
      {"measurement": "cell proliferation (growth curves)", "setting": "PanC-1 cells [2]", "value": "no effect"},
      {"measurement": "cell proliferation (growth curves)", "setting": "L56Br-C1 cells", "value": "no effect"},
      {"measurement": "toxicity (MTT)", "setting": "MCF-10A cells", "value": "low toxicity"},
      {"measurement": "effect in animal models of idiopathic pulmonary fibrosis (IPF)", "setting": "[3]", "value": "therapeutic effects"},
      {"measurement": "cell proliferation (growth curves)", "setting": "BxPc-3 cells", "value": "no effect"},
      {"measurement": "cell proliferation (growth curves)", "setting": "AsPC-1 cells", "value": "no effect"},
      {"measurement": "cell proliferation (growth curves)", "setting": "MIA PaCa-2 cells", "value": "no effect"},
      {"measurement": "cell proliferation (growth curves)", "setting": "JIMT-1 cells", "value": "no effect on cell proliferation"}
    ]}
  ]
}
